Assay results taken from patent publication US8372176B2, “Metal complexes comprising a ligand derived from 2-aryl-2-hydroxyacetic acid and a divalent or trivalent metal cation, and their use” (Clariant Specialty Fine Chemicals (France), priority 2006, dated 2013).
Blank lines part the entries; values can stand above or below the compound they belong to.

What was measured:
[1] = Dissolution of FeCl3 with ligand in aqueous phase at neutral or basic pH; Fe in filtrate by ICP-OES; format: physicochemical
Experimental: (§1) The invention is illustrated without implied limitation by the following examples, in which the amounts of metals in solution were measured by ICP-OES (Inductively Coupled Plasma-Optical Emission Spectroscopy).
(§2) In the examples which follow, the term “theoretical % by weight of metal in solution” is understood to mean the ratio, expressed as percentage, of the total weight of metal initially introduced into the reaction medium to the weight of the filtrate recovered and analysed.
(§3) 4.92 g (0.025 mol) of OHMNa are dissolved in 19.17 ml of water. 20.27 g of an aqueous solution comprising 6.76 g of FeCl3 hexahydrate (0.025 mol) are added over 15 min while maintaining the temperature of the reaction medium at approximately 20° C. The pH of the solution is adjusted to 7 by addition of a 50% by weight aqueous sodium hydroxide solution (5.87 g). The mixture is subsequently stirred at ambient temperature for 24 h. After filtering and washing with water, 59.9 g of a solution with a dark brown-red colour are recovered.
8.11 g of FeCl3 hexahydrate are dissolved in 12 ml of water. The pH is adjusted to 7 by addition of a 50% by weight aqueous sodium hydroxide solution. After filtering and washing with water, less than 10 ppm of Fe are measured in the filtrate.
2.05 g (0.01 mol) of 5-chloro-2-hydroxymandelic acid are suspended in 15 ml of water. 0.8 g of 50% by weight sodium hydroxide solution (0.01 mol) is added in order to obtain a solution. 17.7 g of an aqueous solution comprising 2.7 g of FeCl3 hexahydrate (0.01 mol) are added over 15 min while maintaining the temperature of the reaction medium at approximately 20° C. The pH of the solution is adjusted to 7 by addition of 2.4 g of a 50% by weight aqueous sodium hydroxide solution. The mixture is subsequently stirred at ambient temperature for 24 h. After filtering, 35.1 g of a solution with a dark brown-red colour are recovered.
The procedure of Example 1 or 2 is repeated but using, according to the invention, the ligands B, C, D and E of formula (I), the structures of which are described in Table 1 below, and varying the ligand/metal molar ratios, if appropriate.
The procedure of Example 2 is repeated by using the compounds G, H, I and J as ligands, the structures of which are described in Table 4 below, and varying the ligand/metal molar ratios, if necessary.
The procedure described in Example 1 is repeated but adjusting the pH of the solution to 6, 7, 9, 10 and 12.
A solution composed of 40 g of water and of 12.97 g of FeCl3 hexahydrate (0.048 mol) is added over 15 min to 43.5 g of an aqueous solution comprising 10.2 g of OHM.2Na (0.048 mol) while maintaining the temperature of the reaction medium at approximately 20° C. The pH of the solution is adjusted to 7 by addition of a 50% by weight aqueous sodium hydroxide solution (5.1 g). The mixture is subsequently stirred at ambient temperature for 5 weeks without specific protection with regard to light. After filtering, 80 g of a solution with a dark brown-red colour are recovered.
1.98 g (0.01 mol) of OHMNa are dissolved in 8 ml of water.
12.7 g of an aqueous solution comprising 2.7 g of FeCl3 hexahydrate (0.01 mol) are added over 15 min while maintaining the temperature of the reaction medium at approximately 20° C. The pH of the solution is adjusted to 7 by addition of 2.3 g of a 50% by weight aqueous sodium hydroxide solution. A suspension of 1.0 g (0.01 mol) of CaCO3 in 15 g of water is subsequently added. A few drops of 37% HCl are added to adjust the pH to 7. The mixture is subsequently stirred at ambient temperature for 24 hours. After filtering, 35.0 g of a solution with a dark brown-red colour are recovered.

[2] = Dissolution of Mg(II) cations with OHM.2Na at pH 12; format: physicochemical; conditions: 0.05 mol OHM.2Na
Experimental: (§4) To an aqueous solution (60 g) containing 0.05 mol of OHM.2Na, are added 9.9 g of an aqueous solution containing 0.025 mole of magnesium chloride (MgCl2). The pH is set at 12 with 1 g of an aqueous solution of HCl 1N. […] Without the OHM.2Na, the magnesium precipitate at pH 12 as a white solid (Mg(OH)2).
as §4, with “added 19.8” for “added 9.9”, “containing 0.05” for “containing 0.025”, “with 2.6” for “with 1”, “of NaOH 30%.” for “of HCl 1N.”

[3] = Dissolution of Al(III) cations with OHMNa; metal in filtrate by ICP-OES; format: physicochemical
Experimental: as §1, §2, §3
(§5) The procedure of Example 1 is repeated but substituting FeCl3 by AlCl3, CrCl3.6H2O and Cu(OAc)2.H2O respectively.

[4] = Dissolution of Cu(II) cations with OHMNa; metal in filtrate by ICP-OES; format: physicochemical
Experimental: as §1, §2, §3, §5

[5] = Dissolution of Cr(III) cations with OHMNa; metal in filtrate by ICP-OES; format: physicochemical
Experimental: as §1, §2, §3, §5

[6] = commercial chelates, background statement; cited from earlier work
[7] = background statement, on average; cited from earlier work
[8] = Iron content of the dried powder by ICP-OES; format: physicochemical; conditions: ICP-OES measurement on powder
Experimental: as §1
The dark brown-red solution obtained in Example 1 is concentrated by distillation of water. The residue is dried in an oven at 50° C. for 48 h. A red-brown powder is obtained which comprises 12% by weight of iron by ICP-OES measurement.
A measurement on a powder formed of [Fe(o,o-EDDHA)Na] chelate available commercially gives only 7.8% by weight of iron.

[9] = pH 7, stirred 24 h at ambient temperature, filtrate
[10] = pH 7, total Fe introduced / weight of filtrate
[11] = Table 6, comparative ligands, pH 7
[12] = Table 6, pH 7, ligand/iron molar ratio of 2/1

SMILES: O=C(O)C(O)c1cc(Cl)ccc1O (stereo not shown) [5-chloro-2-hydroxymandelic acid]
% by weight of Fe in solution measured [1, 9]: 1.3 % by weight | Theoretical % by weight of Fe in solution [1, 10]: 1.59 % by weight

SMILES: O=C(O)C(O)c1ccccc1 (stereo not shown) [compound 4, reference compound]
% by weight measured (Fe in solution) [1, 11]: 0.09 % by weight | Theoretical % by weight of Fe in solution [1, 11]: 2.38 % by weight | dissolution of iron in aqueous solution at pH 7 (in words) ([1]; pH 7): do not make possible or make possible only to a very slight extent the dissolution of iron

SMILES: O=C([O-])C(O)c1ccccc1[O-].[Na+].[Na+] (stereo not shown) [OHM.2Na, disodium salt of 2-(2-hydroxyphenyl)-2-hydroxyacetic acid]
Theoretical % by weight of Fe in solution ([1]; pH 7, 5 weeks stirring): 3.35 % by weight | % by weight of Fe in solution measured ([1]; pH 7, stirred 5 weeks at ambient temperature without protection from light): 3.2 % by weight | state of the solution after 24 hours under stirring ([2]; 0.025 mole MgCl2): still homogeneous, without any solid | state of the solution after 24 hours under stirring ([2]; 0.05 mole MgCl2): still homogeneous, without any solid

SMILES: O=C([O-])C(O)c1ccccc1O.[Na+] (stereo not shown) [OHMNa, sodium salt of 2-(2-hydroxyphenyl)-2-hydroxyacetic acid]
% by weight measured (Fe in solution) ([1]; OHMNa, pH 6): 1.7 % by weight | Theoretical % by weight of Fe in solution ([1]; OHMNa, pH 6): 2.18 % by weight | % by weight measured (Fe in solution) ([1]; OHMNa, pH 7): 2.3 % by weight | Theoretical % by weight of Fe in solution ([1]; OHMNa, pH 7): 2.33 % by weight | % by weight measured (Fe in solution) ([1]; OHMNa, pH 9): 1.9 % by weight | Theoretical % by weight of Fe in solution ([1]; OHMNa, pH 9): 1.96 % by weight | % by weight measured (Fe in solution) ([1]; OHMNa, pH 10): 2.7 % by weight | Theoretical % by weight of Fe in solution ([1]; OHMNa, pH 10): 2.80 % by weight | % by weight measured (Fe in solution) ([1]; OHMNa, pH 12): 1.9 % by weight | Theoretical % by weight of Fe in solution ([1]; OHMNa, pH 12): 1.92 % by weight | Theoretical % by weight of Fe in solution ([1]; pH 7, in the presence of CaCO3): 1.59 % by weight | % by weight of Fe in solution measured ([1]; pH 7, in the presence of CaCO3 (0.01 mol), 24 hours): 1.4 % by weight | % by weight of Fe in solution measured [1, 9]: 2.3 % by weight | Theoretical % by weight of Fe in solution [1, 10]: 2.33 % by weight | Theoretical % by weight of metal in solution ([3]; pH 7): 1 % by weight | % by weight measured (metal in solution) ([3]; pH 7, 24 h): 1 % by weight | Theoretical % by weight of metal in solution ([4]; pH 7): 1.43 % by weight | % by weight measured (metal in solution) ([4]; pH 7, 24 h): 1.40 % by weight | Theoretical % by weight of metal in solution ([5]; pH 7): 1.83 % by weight | % by weight measured (metal in solution) ([5]; pH 7, 24 h): 1.40 % by weight

SMILES: O=C(O)C(O)c1cc(F)ccc1O (stereo not shown) [Example 6]
% by weight measured (Fe in solution) ([1]; Table 3, ligands B-E, pH 7): 1.4 % by weight | Theoretical % by weight of Fe in solution ([1]; Table 3, ligands B-E, pH 7): 1.46 % by weight

SMILES: O=C(O)C(=O)c1ccccc1O [compound 3, reference compound]
% by weight measured (Fe in solution) [1, 11]: 0.5 % by weight | Theoretical % by weight of Fe in solution [1, 11]: 4.09 % by weight | dissolution of iron in aqueous solution at pH 7 (in words) ([1]; pH 7): do not make possible or make possible only to a very slight extent the dissolution of iron

SMILES: O=C([O-])C(O)c1ccc(O)cc1.[Na+] (stereo not shown) [Example 3]
% by weight measured (Fe in solution) ([1]; Table 3, ligands B-E, pH 7): 1.1 % by weight | Theoretical % by weight of Fe in solution ([1]; Table 3, ligands B-E, pH 7): 1.47 % by weight

SMILES: O=C(O)C(NCCNC(C(=O)O)c1ccccc1O)c1ccccc1[O-].[Fe].[Na+] (stereo not shown) [[Fe(o,o-EDDHA)Na]]
solubility in water [6]: 150-300 g/l of water | level of iron of commercial chelates [7]: ~6 % by weight | % by weight of iron in the powder [8]: 7.8 % by weight

SMILES: O=C(O)C(O)c1ccccc1Cl (stereo not shown) [compound 5, reference compound]
% by weight measured (Fe in solution) [1, 11]: 0.01 % by weight | Theoretical % by weight of Fe in solution [1, 11]: 4.73 % by weight | dissolution of iron in aqueous solution at pH 7 (in words) ([1]; pH 7): do not make possible or make possible only to a very slight extent the dissolution of iron

More lines, main results first:

% by weight measured (Fe in solution) [1, 11]: <0.0025 % by weight | Theoretical % by weight of Fe in solution [1, 11]: 2.88 % by weight | % by weight measured (Fe in solution) [1, 12]: 0.01 % by weight | Theoretical % by weight of Fe in solution [1, 12]: 1.67 % by weight
SMILES: O=C(O)Cc1ccccc1O [compound 2, reference compound]
dissolution of iron in aqueous solution at pH 7 (in words) ([1]; pH 7): do not make possible or make possible only to a very slight extent the dissolution of iron

% by weight measured (Fe in solution) ([1]; Table 3, ligands B-E, pH 7): 1.5 % by weight | Theoretical % by weight of Fe in solution ([1]; Table 3, ligands B-E, pH 7): 1.83 % by weight
SMILES: CCOc1cc(C(O)C(=O)O)ccc1O (stereo not shown) [Example 4]

Fe measured in the filtrate ([1]; FeCl3 hexahydrate without ligand, pH 7): less than 10 ppm
SMILES: O.O.O.O.O.O.[Cl-].[Cl-].[Cl-].[Fe+3] [compound 1, FeCl3 hexahydrate, reference compound]

% by weight measured (Fe in solution) ([1]; Table 3, ligands B-E, pH 7): 1.2 % by weight | Theoretical % by weight of Fe in solution ([1]; Table 3, ligands B-E, pH 7): 1.49 % by weight
SMILES: O=C(O)C(O)c1ccc(O)c(O)c1 (stereo not shown) [Example 5]
